Reference: PubChem BioAssay AID2060489 (Molecular Pharmacology Branch, DTP, NCI, 2025)
pIC50: −log10 of the molar value. Where “and” joins values, the source holds several entries; their conditions need not be identical. Equal entries are not always repeated.

Tested on: 922993-354-T-J3-PDC complex spheroids, viability
Assay: Anticancer human tumor 922993-354-T-J3-PDC patient-derived endometrial carcinoma cell line growth inhibition [GQUAD]
Details: for viability, T/C: stronger effect = lower value; active means viability on the fitted dose curve at most 10% of control; inactive means the rest
Text: DNA G-quadruplex Stabilizer Agents in Combinations in Complex Spheroids
A high-throughput screen of multi-cell type tumor spheroids was designed to identify active combinations of DNA G-quadruplex stabilizer agents and targeted small molecules. Complex spheroids include a stromal component modeled by human endothelial cells (HUVEC) and fibroblasts modeled by human mesenchymal stem cells (MSCs). The concentration ranges selected for each drug and investigational agent were based upon clinically achievable concentrations if the clinical Cmax of the agent was known.
Compounds. The drugs and investigational agents: pidnarulex (CX-5461; NSC782164), APTO-253 (NSC789042), BRACO-19 (NSC847499), peposertib (NSC802822), ceralasertib (NSC780249), elimusertib (NSC800525), camonsertib (NSC841442), AZD-1390 (NSC803789), olaparib (NSC753686), talazoparib (NSC767125), ART-558 (NSC835418), sotorasib (NSC818433), MRTX-1133 (NSC836407), SN-38 (NSC673596), topotecan (NSC609699), etoposide (NSC141540), doxorubicin (NSC123127), gemcitabine (NSC613327), 5-fluorouracil (NSC19893), paclitaxel (NSC125973), vemurafenib (NSC761431), panobinostat (NSC761190), R-306465 (JNJ-16241199; NSC773264), adavosertib (NSC754352), TP-3654 (NSC805149), carboplatin (NSC241240), KSQ-4279 (NSC840948), and staurosporine (NSC755774) were obtained from the National Cancer Institute (NCI) Developmental Therapeutics Program Chemical Repository (34). The FDA-approved anticancer drug set is available from the NCI Developmental Therapeutics Program. […] The stock solutions were prepared in dimethyl sulfoxide (DMSO, Sigma-Aldrich, St. Louis, MO, cat. D2650) at 800-fold the tested concentration and stored at -70 degrees C prior to their use. All drugs and investigational agents were tested over a range starting from a high concentration at or near the clinical Cmax and decreasing in half-log increments. If the clinical Cmax for an agent had not been determined, the highest concentration tested was 10 microM.
2.3 Cell Culture. All cells were maintained in an incubator at 37 degrees C and 5% CO2 with 95% humidity. The PDC lines were cultured according to standard operating procedures established by the NCI PDMR. All PDCs were thawed and cultured in Matrigel-coated flasks prepared with a working solution of 1X Ham's F-12 nutrient mix, without supplementation (Invitrogen, cat. 11765054), 100 U/mL penicillin-streptomycin (Invitrogen, cat. 15140122), and 2.5% Matrigel (Corning Inc., cat. 354248) for the first three passages. The 857933-349-R-J2-PDC line was cultured in 6C/Colon 1B media, which includes advanced DMEM/F-12 (Thermo Fisher Scientific, cat. 12634028), 10 mM HEPES (Thermo Fisher Scientific, cat. 15630080), 1X GlutaMAX supplement (Thermo Fisher Scientific, cat. 35050061), 0.1 mg/mL primocin (InvivoGen, cat. ant-pm-2), 10% defined fetal bovine serum, heat inactivated (HyClone Laboratories Inc., cat. SH30070.03HI), 50% L-WRN conditioned media (ATCC, cat. CRL-3276), 1.25 mM N-Acetyl-L-cysteine (Sigma-Aldrich, cat. A9165), 10 mM nicotinamide (Sigma-Aldrich, cat. N0636), 1X B-27 supplement (Thermo Fisher Scientific, cat. 17504044), 1X N-2 supplement (Thermo Fisher Scientific, cat. 17502048), 10 microM Y-27632 dihydrochloride (Tocris Bioscience, cat. 1254), and 50 ng/mL human EGF recombinant protein (Thermo Fisher Scientific, cat. PHG0311). The 485176-168-R4-J1-PDC line was cultured in Panc media, which includes all 6C/Colon 1B media components plus 100 ng/mL human FGF-10 (Thermo Fisher Scientific, cat. 100-26), 500 nM SB-431542 (Selleckchem, cat. S1067), and gastrin (Tocris, cat. 3006).
[…]
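Further: spheroids exposed to compounds for seven days.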

CC1COCCN1c1cc(C2(O)CC3CCC(C2)O3)c2cnn(-c3ccn[nH]3)c2n1 (centres undefined) + Cc1cnc(CNC(=O)c2c(=O)c3ccc(N4CCCN(C)CC4)nc3n3c2sc2ccccc23)cn1
> 7.50: pIC50 (curve of first compound, second compound 0.316 µM) | pIC50 (curve of first compound, second compound 1 µM) | pIC50 (curve of first compound, second compound 3.16 µM) | pIC50 (curve of first compound, second compound 10 µM)
inactive: viability, T/C (second compound 0.0316 µM, first compound 0.0316 µM) 79.9% | viability, T/C (second compound 0.0316 µM, first compound 0.1 µM) 64.3% | viability, T/C (second compound 0.0316 µM, first compound 0.316 µM) 40.1% | viability, T/C (second compound 0.0316 µM, first compound 1 µM) 32.2% | viability, T/C (second compound 0.0316 µM, first compound 3.16 µM) 28.6% | viability, T/C (second compound 0.0316 µM, first compound 10 µM) 18.2% | viability, T/C (second compound 0.1 µM, first compound 0.0316 µM) 68.8% | viability, T/C (second compound 0.1 µM, first compound 0.1 µM) 43.1% | viability, T/C (second compound 0.1 µM, first compound 0.316 µM) 40.9% | viability, T/C (second compound 0.1 µM, first compound 1 µM) 21% | viability, T/C (second compound 0.1 µM, first compound 3.16 µM) 26.6% | viability, T/C (second compound 0.1 µM, first compound 10 µM) 16.5% | viability, T/C (second compound 0.316 µM, first compound 0.0316 µM) 47.4% | viability, T/C (second compound 0.316 µM, first compound 0.1 µM) 46.2% | viability, T/C (second compound 0.316 µM, first compound 0.316 µM) 37.1% | viability, T/C (second compound 0.316 µM, first compound 1 µM) 23.1% | viability, T/C (second compound 0.316 µM, first compound 3.16 µM) 22.1% | viability, T/C (second compound 0.316 µM, first compound 10 µM) 12.5% | viability, T/C (second compound 1 µM, first compound 0.0316 µM) 46.2% | viability, T/C (second compound 1 µM, first compound 0.1 µM) 43.1% | viability, T/C (second compound 1 µM, first compound 0.316 µM) 50.8% | viability, T/C (second compound 1 µM, first compound 1 µM) 34.2% | viability, T/C (second compound 1 µM, first compound 3.16 µM) 23.3% | viability, T/C (second compound 3.16 µM, first compound 0.0316 µM) 44.8% | viability, T/C (second compound 3.16 µM, first compound 0.1 µM) 44.2% | viability, T/C (second compound 3.16 µM, first compound 0.316 µM) 45.2% | viability, T/C (second compound 3.16 µM, first compound 1 µM) 29.4% | viability, T/C (second compound 10 µM, first compound 0.0316 µM) 45.5% | viability, T/C (second compound 10 µM, first compound 0.1 µM) 37.9% | viability, T/C (second compound 10 µM, first compound 0.316 µM) 31.4% | viability, T/C (second compound 10 µM, first compound 1 µM) 14.6%
7.06: pIC50 (curve of first compound, second compound 0.1 µM)
6.67: pIC50 (curve of first compound, second compound 0.0316 µM)
active: viability, T/C (second compound 1 µM, first compound 10 µM) 4.13% | viability, T/C (second compound 3.16 µM, first compound 3.16 µM) 3.29% | viability, T/C (second compound 3.16 µM, first compound 10 µM) 0.13% | viability, T/C (second compound 10 µM, first compound 3.16 µM) 0.21% | viability, T/C (second compound 10 µM, first compound 10 µM) 0.2%

Cn1ncnc1[C@H]1c2n[nH]c(=O)c3cc(F)cc(c23)N[C@@H]1c1ccc(F)cc1
inactive: viability, T/C (compound 0.000999 µM) 93.3% and 98.8% and 108% | viability, T/C (compound 0.00316 µM) 101% and 78.7% and 113% | viability, T/C (compound 0.00999 µM) 76.9% and 101% and 85.8% | viability, T/C (compound 0.0316 µM) 87.9% and 74.9% and 91.4% | viability, T/C (compound 0.0999 µM) 68.9% and 72% and 78.9% | viability, T/C (compound 0.316 µM) 54.5% and 62% and 59.1%
< 6.50: pIC50 (curve of compound)
